Here are results for one compound from patent US6420563B1, “Small molecule modulators of G protein-coupled receptor six” (Arena Pharmaceuticals, Inc., priority 1998, dated 2002).

Experiment [1] is described as follows: Long-term (60 days) body weight, daily repeated IP administration, non-food deprived rats. The format is in vivo, rat. To be noted: 13.5 mg/kg IP once a day for 22 days, assessed for 60 days. The procedure: Long-term effects (60 days) of ARE112 were also examined. Animals (treatment, n=4; control, n=5) were treated once a day intraperitoneally with ARE112 for 22 days and assessed for a period of 60 days. On days 1 to 3, animals treated with dose of 13.5 mg/kg initially lost body weight and between day 4 and day 31, animals gradually gained weight, although still weighing less than vehicle treated animals. […] See, FIG. 11.

Experiment [2] in a line: Food intake in non-food deprived rats, oral gavage. The format is in vivo, rat. The procedure: In a second assay, rats were treated with ARE112 by oral gavage but were not food deprived. Data evidence an even greater decrease in food intake, such that at 18 hours post administration of the compound, the vehicle rats had consumed about 15 grams of food while the injected rats (at all doses) ate 5 grams or less; about a three fold decrease in food consumption when treated with compound ARE112. (See, FIG. 9B).

Experiment [3] is described as follows: Basal food/water intake and body weight in non-food deprived rats, IP administration. The experiment is classed as in vivo, rat. To be noted: for food consumed over a period of 4 hrs: dark cycle, vehicle 9 g. The method, then: In this test, animals were not deprived of food but were instead observed for normal activity.
Animals were administered ARE112 at 0, 6.75, 13.5, 27 and 54 mg/kg, IP 30 min prior to the beginning of their dark cycle (i.e. 6:30 pm) and were then exposed to standard rat chow pellets (i.e. 30 min after compound administration) and observed for a period of 15.5 hr post administration. […] For example, the vehicle treated animals consumed 9 g of food over a period of 4 hrs, whereas animals treated with dose of 13.5 mg/kg and 54 mg/kg consumed less than half this amount over this same period (4 and 2 g of food, respectively). […] (See, FIGS. 6B and 6C).

The target of experiment [4] is T1, GPR6 (Homo sapiens, UniProt P46095).
T1 construct: expressed in transfected cells; 293 cells are used elsewhere
Put plainly: membrane-based cyclic AMP confirmation assay (Example 4C). The format is biochemical. An outline of the steps:
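Membranes from stably transfected cells (0.60 mg/ml protein, 30 μg/well) in 20 mM HEPES pH 7.4, 100 mM NaCl, 10 mM MgCl2 were incubated 30 min at room temperature with compound at 12 μM final. cAMP then measured by Flash Plate adenylyl cyclase detection after 2-20 h, scintillation counting.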

A short description of experiment [5]: Intracerebroventricular (ICV) administration on 24-hour food-deprived rats. The format is in vivo, rat. The conditions noted are these: for water drunk: comparable to vehicle. The method, then:
Animals were prepared with an ICV cannula aimed above the lateral ventricle. For this surgery, animals were placed under general anesthesia using continuous inhalation of isoflurane and secured in a Kopf stereotaxic instrument. Surgery was performed in a dedicated surgery room, using sterile instruments, surgical gloves and aseptic procedures to prevent clinical infections. The surgical site was shaved and disinfected with betadine solution and alcohol. Animals were observed continuously for the level of anesthesia by testing for the animals' responses to tail- or paw-pinch. A cannula made of 23 gauge stainless steel tubing (7 mm long) was lowered to a point 1 mm above the ventricle, using coordinates: A/P−0.6 mm from bregma, M/L+/−2.0 mm from bregma, D/V 3.2 mm below skull surface. The guide was anchored to the skull with three stainless steel screws and dental cement. Coordinates were based on stereotaxic atlas such as Paxinos and Watson sterotaxic atlas (Paxinos, G. and Watson, C, The Rat Brain, New York, Academic Press, 1982). After cannula implantation, a 30-gauge stainless steel dummy stylet was inserted into the cannula. At the conclusion of surgery, a heat source (heat lamp directed towards one half of recovery cage) was used to maintain body temperature while the animals recovered from anesthesia. Animals were allowed at least one week of recovery after surgery before ICV injection of compound was performed.
Animals were food-deprived for 24 hours prior to administration of the compound.
For ICV injection, the dummy stylet was removed from the implanted cannula, and a 30-gauge stainless steel injector cannula containing ARE112 suspension in a 45% cyclodextrin solution was inserted to a depth 1.5 mm beyond the ventral tip of the implanted cannula. The other (noninserted) end of the injector cannula was attached to 60 cm of PE10 tubing containing the compound suspension, which was attached at the free end of tubing to a 25 μl Hamilton syringe. Ten microliters of ARE112 suspension (containing, 0, 25, 50, and 100 nmol) were then delivered via gentle and even mechanical pressure to the plunger of the Hamilton syringe. The volume of injection was verified by marks on the PE 10 tubing previously calibrated with a 10 μl Hamilton syringe. At the conclusion of injection, any fluid observed from the dorsal tip of the implanted cannula upon withdrawal of the injector cannula was noted, and the dummy stylet was inserted into the implanted cannula.

pIC50: −log10 of the molar value. Where “and” joins values, the source holds several entries; their conditions need not be identical. Equal entries are not always repeated. Where two headings read alike, the source gives them in different places. Some results are limits rather than exact numbers.

T1 sequence (P46095 whole entry): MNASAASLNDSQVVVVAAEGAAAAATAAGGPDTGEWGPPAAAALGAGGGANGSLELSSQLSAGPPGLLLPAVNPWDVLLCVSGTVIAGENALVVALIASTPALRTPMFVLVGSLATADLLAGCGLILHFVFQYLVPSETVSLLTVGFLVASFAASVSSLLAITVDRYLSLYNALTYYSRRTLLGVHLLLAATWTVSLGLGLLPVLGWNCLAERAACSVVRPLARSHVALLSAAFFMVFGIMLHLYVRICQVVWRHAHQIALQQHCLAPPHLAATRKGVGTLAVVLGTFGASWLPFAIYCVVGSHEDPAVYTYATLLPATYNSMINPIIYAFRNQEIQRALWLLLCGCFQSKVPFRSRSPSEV

As usually defined, the IC50 is the concentration needed to halve the response being measured. Usually pIC50 stands for the negative decadic logarithm of the IC50, by convention in mol/L. As for `O=C(N=C1SSC2=NCCN21)c1cccs1` [ARE112, N-(5,6-dihydro-3H-imidazo[2,1-c]-1,2,4-dithiazol-3-ylidene)-thiophen-2-carboxamide], the “body weight, long-term” value in experiment [1] is listed as “long-term decrease in body weight”. In experiment [2] (6.75 to 54 mg/kg), the oral activity entry is “orally active”. The “decrease in food consumption” value in experiment [2] (18 hours post administration) is “three”. The food consumed is listed as no more than 5 grams in experiment [2] (all doses, 18 hours post administration, vehicle about 15 grams) and no more than 1.0 grams in experiment [5] (after three hours, ICV, vehicle about 2.5 grams). Further, the entries for the “food consumed over a period of 4 hrs” value in experiment [3] (13.5 mg/kg IP) and in experiment [3] (54 mg/kg IP) were 4 g and 2 g, respectively. In addition, the body weight gain entry in experiment [3] (IP, non-deprived rats) was “decrease”. The water intake result in experiment [3] (IP, non-deprived rats) is “decrease”. Besides, the IC50 in experiment [4] (assay number 1-3 for compound ARE112, read-out: IC50 Values (nM) cAMP) is 88.3 nM and 77.4 nM and 99 nM. Besides, in experiment [4] (mean +/- standard deviation (number of assays in brackets), read-out: IC50 Values Cyclic AMP Assay Example 4C), the negative-log IC50 (pIC50) is 7.00. Besides, the water drunk entry in experiment [5] (25 nmol ICV) and in experiment [5] (50 nmol ICV) was “about 17 grams” each time. For the same compound, in experiment [5] (100 nmol ICV, relative to about 17 grams), the water consumed result is “less than half that amount”. The compound also gave a weight gained in experiment [5] (100 nmol ICV, vehicle about 12 grams) of 5 grams. Further, the “less food consumed than vehicle” value in experiment [5] (two hours post-administration, all doses (25, 50, 100 nmol ICV)) is on record as “about 6 fold”.
